Measurements from US11345694B2, “Antibacterial compounds” (DISCUVA LTD., priority 2017, dated 2022).
In brackets after ≈: the same amount, converted by molar mass.

Columns and labels:
[1] = system: Pseudomonas aeruginosa ATCC 33359 (PA); test: MIC broth microdilution; format: cell-based; settings: ATCC33359
Experimental: (§1) Minimum Inhibitory Concentrations (MICs) versus planktonic bacteria are determined by the broth microdilution procedure according to the guidelines of the Clinical and Laboratory Standards Institute (Clinical and Laboratory Standards Institute. Methods for Dilution Antimicrobial Susceptibility Tests for Bacteria That Grow Aerobically; Approved Standard-tenth Edition. CLSI document M07-A10, 2015). The broth dilution method involves a two-fold serial dilution of compounds in 96-well microtitre plates, giving a final concentration range of 0.39-200 μM and a maximum final concentration of 2% DMSO. The bacterial strains tested include Escherichia coli K12 (EC), E. coli NCTC 13441 (UPEC), Staphylococcus aureus ATCC 35556 (SA), Acinetobacter baumannii ATCC 17978 (AB), Pseudomonas aeruginosa ATCC 33359 (PA), Enterobacter cloacae DSM 30054 (Ed), Serratia marcescens SL1344 (Sm), Salmonella typhimurium XNAA5 (St), Klebsiella pneumoniae ATCC 10031 (KP2), K. pneumoniae NCTC 13438 (KP1), K. pneumoniae ATCC 700603 (KP3), Klebsiella pneumoniae ATCC 51504 (KP4), K. pneumoniae H154680676 (KP5), K. pneumoniae H154020667 (KP6), K. pneumoniae H154640784 (KP7), K. pneumoniae H154600588 (KP8), K. pneumoniae H154300688 (KP9), K. pneumoniae H151440671 (KP10). Strains are grown in cation-adjusted Müller-Hinton broth or on Luria Bertoni agar at 37° C. in an ambient atmosphere. The MIC is determined as the lowest concentration of compound that inhibits growth following a 20-24 hour incubation period.

[2] = system: Acinetobacter baumannii ATCC 17978 (AB); test: MIC broth microdilution; format: cell-based; settings: ATCC17978
Experimental: as §1

[3] = system: Escherichia coli K12 (EC); test: MIC broth microdilution; format: cell-based
Experimental: as §1

[4] = system: Staphylococcus aureus ATCC 35556 (SA); test: MIC broth microdilution; format: cell-based; settings: ATCC35556
Experimental: as §1

[5] = system: Klebsiella pneumoniae ATCC 10031 (KP2); test: MIC broth microdilution; format: cell-based; settings: ATCC10031
Experimental: as §1

[6] = system: human hepatocarcinoma cell line ATCC HB-8065 (HepG2); test: Human cell viability (CellTiter-Glo); format: cell-based; settings: Homo sapiens; HepG2 cells, 24 h incubation, CellTiter-Glo luminescence, 0.2-100 μM; read-out: IC50 values against the HepG2 cell line
Experimental: Compounds are assessed for potential non-specific cytotoxic effects against the human hepatocarcinoma cell line ATCC HB-8065 (HepG2). HepG2 cells are seeded at 20,000 cells/well in 96-well microtitre plates in minimal essential medium (MEM) supplemented with a final concentration of 10% FBS. After 24 h, compound dilutions are prepared in MEM supplemented with a final concentration of 1% FBS, and added to the cells. Compounds are tested in two-fold serial dilutions over a final concentration range of 0.2-100 μM in a final DMSO concentration of 1% vol/vol. Thioridazine is used as a positive control. Cells are incubated with compound at 37° C. and 5% CO2 for a further 24 h, after which time the CellTiter-Glo reagent (Promega) is added. Luminescence is measured on a Perkin Elmer Envision plate reader. Data are analysed using a 4 parameter logistic regression to determine the concentration of compound that inhibits cell viability by fifty percent (IC50).

[7] = system: E. coli NCTC 13441 (UPEC); test: MIC broth microdilution; format: cell-based, Escherichia coli; settings: Escherichia coli, NCTC13441
Experimental: as §1

[8] = system: K. pneumoniae NCTC 13438 (KP1); test: MIC broth microdilution; format: cell-based, Klebsiella pneumoniae; settings: Klebsiella pneumoniae, NCTC13438
Experimental: as §1

MIC [1] [µM] | MIC [2] [µM] | MIC [3] [µM] | MIC [4] [µM] | MIC [5] [µM] | IC50 [6] [µM] | MIC [7] [µM] | MIC [8] [µM] | Structure (SMILES)
> 100 | > 100 | > 100 | > 100 | 1 to 10 (≈ 0.321 to 3.21 µg/mL) | > 100 | > 100 | > 100 | Cc1cc(-c2nc(N)[nH]c2-c2ccc(C(=O)N(C)C)cc2)ccn1 [Example 10, 4-(2-Amino-4-(2-methylpyridin-4-yl)-1H-imidazol-5-yl)-N,N-dimethylbenzamide]
> 100 | > 100 | 1 to 10 (≈ 0.298 to 2.98 µg/mL) | > 100 | ≤ 1 | > 100 | 1 to 10 (≈ 0.298 to 2.98 µg/mL) | 10 to 100 (≈ 2.98 to 29.8 µg/mL) | COc1ccc(-c2[nH]c(N)nc2-c2ccnc(C)c2)cc1F [Example 11, 5-(3-Fluoro-4-methoxyphenyl)-4-(2-methylpyridin-4-yl)-1H-imidazol-2-amine]
> 100 | > 100 | 1 to 10 (≈ 0.338 to 3.38 µg/mL) | > 100 | ≤ 1 | 25 to 100 | 1 to 10 (≈ 0.338 to 3.38 µg/mL) | 10 to 100 (≈ 3.38 to 33.8 µg/mL) | Cc1cc(-c2nc(N)[nH]c2-c2ccc(OCC3CC3)c(F)c2)ccn1 [Example 13, 5-(4-(Cyclopropylmethoxy)-3-fluorophenyl)-4-(2-methylpyridin-4-yl)-1H-imidazol-2-amine]
> 100 | > 100 | ≤ 1 | > 100 | ≤ 1 | > 100 | ≤ 1 | 1 to 10 (≈ 0.324 to 3.24 µg/mL) | Cc1cc(-c2nc(N)[nH]c2-c2ccc(OC3CC3)c(F)c2)ccn1 [Example 14, 5-(4-Cyclopropoxy-3-fluorophenyl)-4-(2-methylpyridin-4-yl)-1H-imidazol-2-amine]
> 100 | > 100 | 10 to 100 (≈ 2.84 to 28.4 µg/mL) | > 100 | ≤ 1 | > 100 | 1 to 10 (≈ 0.284 to 2.84 µg/mL) | 10 to 100 (≈ 2.84 to 28.4 µg/mL) | Cc1cc(-c2nc(N)[nH]c2-c2ccc(O)c(F)c2)ccn1 [Example 15, 4-(2-Amino-4-(2-methylpyridin-4-yl)-1H-imidazol-5-yl)-2-fluorophenol]
> 100 | > 100 | 1 to 10 (≈ 0.312 to 3.12 µg/mL) | > 100 | ≤ 1 | > 100 | 1 to 10 (≈ 0.312 to 3.12 µg/mL) | 10 to 100 (≈ 3.12 to 31.2 µg/mL) | CCOc1ccc(-c2[nH]c(N)nc2-c2ccnc(C)c2)cc1F [Example 17, 5-(4-Ethoxy-3-fluorophenyl)-4-(2-methylpyridin-4-yl)-1H-imidazol-2-amine]
> 100 | > 100 | 10 to 100 (≈ 3.1 to 31 µg/mL) | > 100 | 1 to 10 (≈ 0.31 to 3.1 µg/mL) | > 100 | 10 to 100 (≈ 3.1 to 31 µg/mL) | > 100 | Nc1nc(-c2ccc3c(c2)OCCO3)c(-c2cc[nH]c(=O)c2)[nH]1 [Example 18, 4-(2-Amino-4-(2,3-dihydrobenzo[b][1,4]dioxin-6-yl)-1H-imidazol-5-yl)pyridin-2(1H)-one]
> 100 | > 100 | 1 to 10 (≈ 0.334 to 3.34 µg/mL) | > 100 | ≤ 1 | 25 to 100 | 1 to 10 (≈ 0.334 to 3.34 µg/mL) | 10 to 100 (≈ 3.34 to 33.4 µg/mL) | Cc1cc(-c2[nH]c(N)nc2-c2ccc(OC(F)(F)F)cc2)ccn1 [Example 20, 5-(2-Methylpyridin-4-yl)-4-(4-(trifluoromethoxy)phenyl)-1H-imidazol-2-amine]
> 100 | > 100 | 10 to 100 (≈ 2.8 to 28 µg/mL) | > 100 | ≤ 1 | > 100 | 10 to 100 (≈ 2.8 to 28 µg/mL) | 10 to 100 (≈ 2.8 to 28 µg/mL) | COc1cccc(-c2nc(N)[nH]c2-c2ccnc(C)c2)c1 [Example 25, 4-(3-Methoxyphenyl)-5-(2-methylpyridin-4-yl)-1H-imidazol-2-amine]
> 100 | > 100 | 1 to 10 (≈ 0.302 to 3.02 µg/mL) | > 100 | ≤ 1 | > 100 | 1 to 10 (≈ 0.302 to 3.02 µg/mL) | 10 to 100 (≈ 3.02 to 30.2 µg/mL) | Cc1cc(-c2[nH]c(N)nc2-c2ccc3nccnc3c2)ccn1 [Example 31, 5-(2-Methylpyridin-4-yl)-4-(quinoxalin-6-yl)-1H-imidazol-2-amine]
